US9920059B2, “Heterocyclic compounds as pesticides” (BAYER CROPSCIENCE AKTIENGESELLSCHAFT, priority 2014, dated 2018)
Like-named read-outs stand apart in the source and are kept apart here. One block for each compound: values may come before it.

What was measured:
[1] = system: green peach aphid (Myzus persicae); assay: Myzus persicae spray test (MYZUPE), bell pepper plants; type: in vivo; conditions: after 6 days
Protocol: Myzus Persicae—Spray Test (MYZUPE) • Solvent: 7 parts by weight of dimethylformamide • Emulsifier: alkylaryl polyglycol ether To produce an appropriate active ingredient preparation, 1 part by weight of active ingredient is dissolved using the specified parts by weight of solvent and made up with water containing an emulsifier concentration of 1000 ppm until the desired concentration is attained. To produce further test concentrations, the preparation is diluted with emulsifier-containing water. If the addition of ammonium salts or/and penetrants is required, these are each added in a concentration of 1000 ppm to the preparation solution. Bell pepper plants (Capsicum annuum) severely infested with the green peach aphid (Myzus persicae) are treated by spraying with the active ingredient preparation in the desired concentration. After 6 days, the kill in % is determined. 100% means that all the aphids have been killed; 0% means that no aphids have been killed.

[2] = log P by HPLC on reversed-phase C18 columns, OECD Guideline 117; type: physicochemical; conditions: for chromatographic logP: reversed-phase C18 HPLC column; for logP [a]: pH 2.7; for logP [b]: pH 7.8
Protocol: The log P values were determined in accordance with OECD Guideline 117 (EC Directive 92/69/EEC) by HPLC (high-performance liquid chromatography) using reversed-phase (RP) columns (C18), by the following methods: [a] The LC-MS determination in the acidic range is effected at pH 2.7 with 0.1% aqueous formic acid and acetonitrile (contains 0.1% formic acid) as eluents; linear gradient from 10% acetonitrile to 95% acetonitrile. [b] LC-MS determination in the neutral range is effected at pH 7.8 with 0.001 molar aqueous ammonium hydrogencarbonate solution and acetonitrile as eluents; linear gradient from 10% acetonitrile to 95% acetonitrile. Calibration is effected with unbranched alkan-2-ones (having 3 to 16 carbon atoms) with known log P values (log P values determined on the basis of the retention times by linear interpolation between two successive alkanones).

[3] = system: green peach aphid (Myzus persicae); assay: Myzus persicae spray test (MYZUPE), Chinese cabbage leaf discs; type: in vivo; conditions: after 6 days
Protocol: Myzus persicae—Spray Test (MYZUPE)
• Solvent: 78 parts by weight of acetone • 1.5 parts by weight of dimethylformamide • Emulsifier: alkylaryl polyglycol ether
(§1) To produce an appropriate active ingredient preparation, 1 part by weight of active ingredient is dissolved using the specified parts by weight of solvent and made up with water containing an emulsifier concentration of 1000 ppm until the desired concentration is attained. To produce further test concentrations, the preparation is diluted with emulsifier-containing water.
Discs of Chinese cabbage leaves (Brassica pekinensis) infested with all stages of the green peach aphid (Myzus persicae) are sprayed with an active ingredient preparation of the desired concentration.
After 6 days, the efficacy in % is determined. 100% means that all the aphids have been killed; 0% means that none of the aphids have been killed.

[4] = system: adult houseflies (Musca domestica); assay: Musca domestica test (MUSCDO); type: in vivo; conditions: application rate 100 ppm, after 2 days
Protocol: Musca domestica Test (MUSCDO) • Solvent: dimethyl sulphoxide To prepare an appropriate active ingredient preparation, 10 mg of active ingredient are mixed with 0.5 ml of dimethyl sulphoxide, and the concentrate is diluted with water to the desired concentration. Vessels containing a sponge treated with sugar solution and the active ingredient preparation of the desired concentration are populated with 10 adult houseflies (Musca domestica). After 2 days, the kill in % is determined. 100% means that all of the flies have been killed; 0% means that none of the flies have been killed.

[5] = system: greenhouse red spider mite (Tetranychus urticae); assay: Tetranychus urticae spray test, OP-resistant (TETRUR), bean leaf discs; type: in vivo; conditions: application rate 500 g/ha, after 6 days
Protocol: Tetranychus urticae—Spray Test, OP-Resistant (TETRUR)
• Solvent: 78.0 parts by weight of acetone • 1.5 parts by weight of dimethylformamide • Emulsifier: alkylaryl polyglycol ether
as §1
Discs of bean leaves (Phaseolus vulgaris) infested with all stages of the greenhouse red spider mite (Tetranychus urticae) are sprayed with an active compound preparation of the desired concentration.
After 6 days, the efficacy in % is determined. 100% means that all the spider mites have been killed; 0% means that none of the spider mites have been killed.

[6] = acidic range, pH 2.7, 0.1% aqueous formic acid/acetonitrile, read-out: log P[a]
[7] = neutral range, pH 7.8, ammonium hydrogencarbonate/acetonitrile, read-out: log P[b]
[8] = acidic range, NMR peak list table
[9] = neutral range, NMR peak list table

chromatographic logP [2, 6]: 2.65
chromatographic logP [2, 7]: 2.63
SMILES: Cc1cc(F)c(-n2cnc3nn(-c4cccnc4)cc3c2=O)cc1SCC(F)(F)F [I-1-1, 5-{2-Fluoro-4-methyl-5-[(2,2,2-trifluoroethyl)sulphanyl]phenyl}-2-(pyridin-3-yl)-2,5-dihydro-4H-pyrazolo[3,4-d]pyrimidin-4-one]
efficacy (kill in %) ([1]; application rate 20 ppm): 100%

chromatographic logP [2, 6]: 2.22
chromatographic logP [2, 7]: 2.19
SMILES: Cc1cc(F)c(-n2nnc3nn(-c4cccnc4)cc3c2=O)cc1[S+]([O-])CC(F)(F)F (stereo not drawn) [I-1-2, 3-[2-Fluoro-4-methyl-5-(2,2,2-trifluoroethylsulphinyl)phenyl]-6-(3-pyridyl)pyrazolo[3,4-d]triazin-4-one]
efficacy in % ([3]; application rate 500 g/ha): 100%
efficacy (kill in %) [4]: 80%

chromatographic logP [2, 6]: 1.79
chromatographic logP [2, 7]: 1.78
SMILES: Cc1cc(F)c(-n2cnc3nn(-c4cccnc4)cc3c2=O)cc1[S+]([O-])CC(F)(F)F (stereo not drawn) [I-1-4, 5-{2-Fluoro-4-methyl-5-[(2,2,2-trifluoroethyl)sulphinyl]phenyl}-2-(pyridin-3-yl)-2,5-dihydro-4H-pyrazolo[3,4-d]pyrimidin-4-one]
efficacy in % ([3]; application rate 500 g/ha): 100%
efficacy in % [5]: 100%

chromatographic logP [2, 6]: 1.39
chromatographic logP [2, 7]: 1.33
SMILES: Cc1cc(F)c(-n2cnc3nn(-c4ccc[n+]([O-])c4)cc3c2=O)cc1[S+]([O-])CC(F)(F)F (stereo not drawn) [I-1-5, 5-{2-Fluoro-4-methyl-5-[(2,2,2-trifluoroethyl)sulphinyl]phenyl}-2-(1-oxidopyridin-1-ium-3-yl)pyrazolo[3,4-d]pyrimidin-4-one]
efficacy in % ([3]; application rate 500 g/ha): 100%

logP [a] ([2]; acidic range, Table 2): 2.51
logP [b] ([2]; neutral range, Table 2): 2.56
SMILES: Cc1ccc(-n2cnc3nn(-c4cccnc4)cc3c2=O)cc1SCC(F)(F)F [I-1-7]
efficacy in % ([3]; application rate 500 g/ha): 90%

logP [a] ([2]; acidic range, Table 2): 1.65
logP [b] ([2]; neutral range, Table 2): 1.67
SMILES: Cc1ccc(-n2cnc3nn(-c4cccnc4)cc3c2=O)cc1[S+]([O-])CC(F)(F)F (stereo not drawn) [I-1-8]
efficacy in % ([3]; application rate 500 g/ha): 90%

logP [a] ([2]; acidic range, Table 2): 2.32
logP [b] ([2]; neutral range, Table 2): 2.35
SMILES: O=c1c2cn(-c3cccnc3)nc2ncn1-c1cc(SCC(F)(F)F)ccc1F [I-1-9]
efficacy in % ([3]; application rate 100 g/ha): 90%

logP [a] ([2]; acidic range, Table 2): 1.53
logP [b] ([2]; neutral range, Table 2): 1.55
SMILES: O=c1c2cn(-c3cccnc3)nc2ncn1-c1cc([S+]([O-])CC(F)(F)F)ccc1F (stereo not drawn) [I-1-10]
efficacy in % ([3]; application rate 500 g/ha): 100%

logP [a] [2, 8]: 2.25
logP [b] [2, 9]: 2.18
SMILES: O=c1c2cn(-c3cccnc3)nc2ncn1-c1cccc(SCC(F)(F)F)c1 [I-1-12]
efficacy in % ([3]; application rate 500 g/ha): 90%

logP [a] [2, 8]: 2.70
logP [b] [2, 9]: 2.65
SMILES: O=c1c2cn(-c3cccnc3)nc2ncn1-c1cc(SCC(F)(F)F)c(Cl)cc1F [I-1-13]
efficacy (kill in %) ([1]; application rate 4 ppm): 100%

logP [a] [2, 8]: 1.46
logP [b] [2, 9]: 1.41
SMILES: O=c1c2cn(-c3cccnc3)nc2ncn1-c1cccc([S+]([O-])CC(F)(F)F)c1 (stereo not drawn) [I-1-16]
efficacy in % ([3]; application rate 500 g/ha): 90%

logP [a] [2, 8]: 2.75
logP [b] [2, 9]: 2.72
SMILES: Cc1cc(C)c(-n2cnc3nn(-c4cccnc4)cc3c2=O)cc1SCC(F)(F)F [I-1-17]
efficacy in % ([3]; application rate 500 g/ha): 90%

logP [a] [2, 8]: 2.02
logP [b] [2, 9]: 1.94
SMILES: O=c1c2cn(-c3cccnc3)nc2ncn1-c1cc([S+]([O-])CC(F)(F)F)c(Cl)cc1F (stereo not drawn) [I-1-18]
efficacy in % ([3]; application rate 500 g/ha): 90%

logP [a] [2, 8]: 2.17
logP [b] [2, 9]: 2.09
SMILES: O=c1c2cn(-c3cccnc3)nc2ncn1-c1cc([S+]([O-])CC(F)(F)F)c(Cl)cc1Cl (stereo not drawn) [I-1-19]
efficacy in % ([3]; application rate 500 g/ha): 90%

The next lines start with the compound.

SMILES: Cc1cc(F)c(-n2nnc3nn(-c4cccnc4)cc3c2=O)cc1SCC(F)(F)F [I-1-3, 3-[2-fluoro-4-methyl-5-(2,2,2-trifluoroethylsulphanyl)phenyl]-6-(3-pyridyl)pyrazolo[3,4-d]triazin-4-one]
efficacy in % ([3]; application rate 500 g/ha): 100%
chromatographic logP [2, 6]: 3.18
chromatographic logP [2, 7]: 3.14
efficacy (kill in %) [4]: 80%

SMILES: CSc1cccc(-n2cnc3nn(-c4cccnc4)cc3c2=O)c1 [I-1-6]
efficacy in % ([3]; application rate 500 g/ha): 90%
logP [a] ([2]; acidic range, Table 2): 1.82
logP [b] ([2]; neutral range, Table 2): 1.78

SMILES: O=c1c2cn(-c3cccnc3)nc2ncn1-c1cccc(SCC2CC2)c1 [I-1-11]
efficacy in % ([3]; application rate 500 g/ha): 100%
logP [a] [2, 8]: 2.50
logP [b] [2, 9]: 2.41

SMILES: O=c1c2cn(-c3cccnc3)nc2ncn1-c1cc(SCC(F)(F)F)c(Cl)cc1Cl [I-1-14]
efficacy in % ([3]; application rate 500 g/ha): 90%
logP [a] [2, 8]: 2.91
logP [b] [2, 9]: 2.83

SMILES: O=c1c2cn(-c3ccc[n+]([O-])c3)nc2ncn1-c1cc([S+]([O-])CC(F)(F)F)c(Cl)cc1Cl (stereo not drawn) [I-1-15]
efficacy in % ([3]; application rate 500 g/ha): 90%
logP [a] [2, 8]: 1.66
logP [b] [2, 9]: 1.67

SMILES: Cc1cc(C)c([S+]([O-])CC(F)(F)F)cc1-n1cnc2nn(-c3cccnc3)cc2c1=O (stereo not drawn) [I-1-20]
efficacy in % ([3]; application rate 20 g/ha): 90%
efficacy in % [5]: 90%
logP [a] [2, 8]: 1.84
logP [b] [2, 9]: 1.79

SMILES: O=c1c2cn(-c3cccnc3)nc2ncn1-c1cccc([S+]([O-])CC2CC2)c1 (stereo not drawn) [I-1-21]
efficacy in % ([3]; application rate 500 g/ha): 90%
logP [a] [2, 8]: 1.27
logP [b] [2, 9]: 1.32

SMILES: Cc1cc(F)c(-n2c(C)nc3nn(-c4cccnc4)cc3c2=O)cc1SCC(F)(F)F [I-1-22]
efficacy in % ([3]; application rate 500 g/ha): 90%
logP [a] [2, 8]: 2.74
logP [b] [2, 9]: 2.69

SMILES: CSc1ccccc1-n1cnc2nn(-c3cccnc3)cc2c1=O [I-2-23]
efficacy in % ([3]; application rate 500 g/ha): 90%
logP [a] [2, 8]: 1.65
logP [b] [2, 9]: 1.67

SMILES: Cc1cc(F)c(NC(=O)c2cn(-c3cccnc3)nc2N)cc1SCC(F)(F)F [II-1, 3-Amino-N-{2-fluoro-4-methyl-5-[(2,2,2-trifluoroethyl)sulphanyl]phenyl}-1-(pyridin-3-yl)-1H-pyrazole-4-carboxamide]
chromatographic logP [2, 6]: 2.72
chromatographic logP [2, 7]: 2.63
